Data from PMC11604427 (Frontiers in Pharmacology, 2024).

Experiments:
[1] = molecular target: T1, Human recombinant PKMYT1 enzyme (Homo sapiens, UniProt Q99640); test: ADP-GLO enzyme inhibition assay; format: biochemical; details: ADP-GLO method
T1 construct: purchased Abcam
T1 sequence (Q99640 1-499): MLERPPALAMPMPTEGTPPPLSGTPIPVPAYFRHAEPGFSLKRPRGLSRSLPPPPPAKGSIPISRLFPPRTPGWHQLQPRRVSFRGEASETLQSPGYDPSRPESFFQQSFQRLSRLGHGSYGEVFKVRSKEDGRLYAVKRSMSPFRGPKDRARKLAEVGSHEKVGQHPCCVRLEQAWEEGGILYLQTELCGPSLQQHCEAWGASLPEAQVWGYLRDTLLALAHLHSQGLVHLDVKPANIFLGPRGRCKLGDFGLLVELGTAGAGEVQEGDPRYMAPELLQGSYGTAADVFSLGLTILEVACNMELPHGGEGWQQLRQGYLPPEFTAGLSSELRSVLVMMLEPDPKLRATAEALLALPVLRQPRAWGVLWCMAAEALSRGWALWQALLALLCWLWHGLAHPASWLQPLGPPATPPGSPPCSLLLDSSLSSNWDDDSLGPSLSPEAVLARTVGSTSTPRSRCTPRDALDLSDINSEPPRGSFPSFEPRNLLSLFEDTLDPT
Method: The ADP-GLO™ kinase assay kit, purchased from Promega Corporation (Madison, WI, United States), included the ADP-GLO reagent, the kinase assay reagent, and ultra-pure ATP and ADP. PKMYT1 enzyme was dissolved in 5 μL of freshly prepared enzyme assay buffer containing 70 mM Hepes, 3 mM MgCl2, 3 mM MnCl2, 50 μg/mL PEG20000, 3 μM sodium orthovanadate, 1.2 mM dithiothreitol, and then injected into 384-well plates. […] The enzymatic reaction was initiated by adding 5 μL of ATP, followed by a 60-min incubation at 30°C. Subsequently, 15 μL of ADP-GLO reagent was added, and the incubation was continued for an additional 40 min at room temperature. Then, 30 μL of kinase detection reagent was introduced, and the samples were incubated for a final 30 min. Luminescence measurements were taken using an Envision plate reader (PerkinElmer). The IC50 value of each tested compound was calculated by GraphPad Prism software.

[2] = molecular target: T2, Human recombinant HDAC2 enzyme (Homo sapiens, UniProt Q92769); test: HDAC2 fluorescence enzyme inhibition assay (Boc-Lys(acetyl)-AMC); format: biochemical; details: fluorescence signal-based method
T2 construct: purchased Abcam
T2 sequence (Q92769 whole entry): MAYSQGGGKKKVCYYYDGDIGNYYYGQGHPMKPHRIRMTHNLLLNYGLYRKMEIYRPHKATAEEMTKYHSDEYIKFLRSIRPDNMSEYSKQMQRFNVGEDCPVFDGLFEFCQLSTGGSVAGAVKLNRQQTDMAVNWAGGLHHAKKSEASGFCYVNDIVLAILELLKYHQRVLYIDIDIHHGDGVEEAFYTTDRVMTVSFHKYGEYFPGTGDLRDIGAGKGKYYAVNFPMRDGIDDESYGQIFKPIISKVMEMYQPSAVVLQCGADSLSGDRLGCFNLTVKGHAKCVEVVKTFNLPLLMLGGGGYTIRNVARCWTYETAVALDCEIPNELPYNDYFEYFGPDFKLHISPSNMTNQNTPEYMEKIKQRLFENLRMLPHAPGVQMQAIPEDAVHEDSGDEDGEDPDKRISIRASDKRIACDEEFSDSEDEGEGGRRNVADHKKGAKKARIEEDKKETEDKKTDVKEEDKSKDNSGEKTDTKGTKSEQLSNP
Method: Firstly, a 96-well plate was loaded with a blend comprising 10 μL of HDAC2 enzyme solution and 50 μL of the test compounds at assorted concentrations, followed by incubation at a temperature of 37°C for a duration of 5 min. Subsequently, 10 μL of the fluorescent substrate Boc-Lys (acetyl)-AMC was added and continued for 30 min. Finally, 100 μL of developer containing trypsin and TSA was injected into each well and incubated for 20 min.

| Compound | PKMYT1 (IC50, nM) [1] | IC50 [1] [nM] | IC50 [2] [nM] |
| --- | --- | --- | --- |
| CCc1nc2c(cc1CCCCCC(=O)NO)c(C(N)=O)c(N)n2-c1c(C)ccc(O)c1C [PKHD-2] | – | 7.78 ± 0.91 | 4.14 ± 0.52 |
| Cc1ccc(O)c(C)c1-n1c(N)c(C(N)=O)c2cc(CCCCCC(=O)NO)c(CCCO)nc21 [PKHD-1] | – | 11.1 ± 1.86 | 8.64 ± 1.35 |
| C=CCc1nc2c(cc1CCCCCC(=O)NO)c(C(N)=O)c(N)n2-c1c(C)ccc(O)c1C [PKHD-3] | – | 9.26 ± 1.07 | 5.47 ± 0.66 |

Further lines, results first:

| PKMYT1 (IC50, nM) [1] | IC50 [1] [nM] | IC50 [2] [nM] | Compound |
| --- | --- | --- | --- |
| no inhibition | – | – | O=C(CCCCCCC(=O)Nc1ccccc1)NO [SAHA, Vorinostat, reference compound] |
| – | 13.6 ± 1.94 | 7.31 ± 1.12 | CCCCc1nc2c(cc1CCCCCC(=O)NO)c(C(N)=O)c(N)n2-c1c(C)ccc(O)c1C [PKHD-4] |
